Assay results as given in patent US12642870B2, “Compositions and methods for delivery of nucleic acids” (Poseida Therapeutics, Inc., priority 2020, dated 2026).

Legend:
[1] = Physical characterisation of mRNA-containing LNPs (DLS, NTA, zeta potential); format: physicochemical; conditions: Fluc mRNA LNPs: compound/DOPE/Cholesterol/DMG-PEG2000 41.44/45.85/10/2.7, lipid:RNA 40:1 (w/w)
Procedure: A series of ten multi-component LNP compositions of the present disclosure comprising exemplary compounds of Formula (I) was prepared by combining various percentages of an exemplary compound of Formula (I), the phospholipid DOPE, the structural lipid cholesterol (Chol) and 1,2-dimyristoyl-sn-glycerol methoxypolyethylene glycol (DMG-PEG2000; Avanti Polar Lipids, Alabaster, Alabama, USA).
(§1) Individual 25 mg/ml stock solutions were prepared by solubilizing the lipids in 200-proof HPLC-grade ethanol and stock solutions were stored at −80° C. until formulated. At the time of formulation, the lipid stock solutions were briefly allowed to equilibrate to room temp and then placed on a hot plate maintained at a temperature range of 50-55° C.
A 1 mg/mi solution of the desired mRNA to be incorporated into the LNPs was added to 150 mM sodium acetate buffer (pH 5.2) to form a stock solution and kept on ice. The lipid phase was mixed with the aqueous m RNA phase inside a microfluidic chip using a NanoAssemblr® instrument (Precision Nanosystems, Vancouver, BC, Canada) according to the manufacturer's instructions to form LNP compositions comprising encapsulated mRNAs.
(§2) The resultant mRNA LNP compositions were then transferred to a Repligen Float-A-Lyzer dialysis device—having a molecular weight cut off (MWCO) of 8-10 kDa (Spectrum Chemical Mfg. Corp, CA, USA) and processed by dialysis against phosphate buffered saline (PBS) (dialysate:dialysis buffer volume at least 1:200 v/v), pH 7.4 overnight at 4° C. (or alternatively room temperature for at least 4 hours), to remove the 25% ethanol and achieve a complete buffer exchange. In some experiments the LNPs were further concentrated by in an Amicon® Ultra-4 centrifugal filter unit, MWCO-30 kDa (Millipore Sigma, USA) spun at ˜4100×g in an ultracentrifuge. The mRNA LNPs were then stored at 4° C. until further use.
A series of multicomponent LNP compositions comprising one of COMPOUNDS 1-8 described in Example 1 and the mRNA encoding flue was prepared according to Example 2 and the physical characteristics of the resulting LNPs were analyzed.
In a separate experiment, LNP compositions of the present disclosure comprising mRNA encoding firefly luciferase (hereafter “Fluc”; TriLink) and COMPOUNDS 1-8 were prepared as described in Example 2 by combining one of COMPOUNDS 1-8, the phospholipid DOPE, the structural lipid cholesterol (Chol) and 1,2-dimyristoyl-sn-glycerol methoxypolyethylene glycol (DMG-PEG2000) in the percentages presented in Table 8: […]

[2] = Physical characterisation of DNA-containing LNPs (DLS, NTA, zeta potential); format: physicochemical; conditions: nano-pB-EF1a-GFP DNA LNPs: compound/DOPE/Cholesterol/DMG-PEG2000 38.0/50.0/10.0/2.0, lipid:DNA 45:1 (w/w)
Procedure: LNP compositions of the present disclosure comprising DNA, a nanoplasmid encoding a piggyBac transposon, wherein the piggyBac transposon comprised GFP under control of the EF1a promoter (herein referred to as the nano-pB-EF1a-GFP), and one of COMPOUNDS 1-8 were prepared as described in Example 3 by combining one of COMPOUNDS 1-8, the phospholipid DOPE, the structural lipid cholesterol (Chol) and 1,2-dimyristoyl-sn-glycerol methoxypolyethylene glycol (DMG-PEG2000) in the following percentages in Table 20: […]

[3] = tested on: BALB/C mice; experiment: In vivo intramuscular LNP delivery of fLuciferase mRNA, bioluminescent imaging; conditions: intramuscular 20 μg fLuciferase mRNA, right hind limb, BLI at 4 hr; LNP compound/DOPE/Cholesterol/DMG-PEG2000 33.5/32.0/33.5/1.0, lipid:RNA 25:1
Procedure: Adult female BALB/C mice (n=2/group) were intramuscularly administered in the right hind limb of each mouse 20 μg of 5′-CleanCap-fLuciferase mRNA (TriLink Biotech) formulated with LNP composition comprising COMPOUND 2 as prepared according to Example 2 in the following percentages shown in Table 16:
The location and extent of luciferase expression in treated and untreated mice were determined at 4 hr and 24 hr by bioluminescent imaging (BLI) of anesthetized mice using an IVIS Lumina in vivo imaging system (Perkin Elmer) according to the manufacturer's instructions. Briefly, mice were anesthetized using isoflurane in oxygen, and placed supine on a heated stage. Mice were then administered D-luciferin (Perkin-Elmer #122799) IP, and BLI was performed.
In another experiment, adult female BALB/C mice (n=2/group) were intramuscularly administered in the right hind limb of each mouse 20 μg of 5′-CleanCap-fLuciferase mRNA (TriLink Biotech) formulated with LNP composition comprising one of COMPOUNDS 3-8 as prepared according to Example 3 in the following percentages shown in Table 18:
The location and extent of luciferase expression in treated and untreated mice were determined at 4 hr by bioluminescent imaging (BLI) of anesthetized mice as described above.

[4] = Particle size and PDI of hand-mixed mRNA or DNA LNPs; format: physicochemical; conditions: for PDI DNA / Particle Size (nm) DNA: hand-mixed DNA LNPs: compound/DOPE/Cholesterol/DMG-PEG2000 38/50/10.0/2.0, lipid:DNA 45:1; for PDI RNA / Particle Size (nm) RNA: hand-mixed mRNA LNPs: compound/DOPE/Cholesterol/DMG-PEG2000 41.44/45.85/10/2.7, lipid:RNA 40:1
Procedure: LNP compositions of the present disclosure comprising exemplary compounds of Formula (I) were prepared by combining various percentages of an exemplary compound of Formula (I), the phospholipid DOPE, the structural lipid cholesterol (Chol) and 1,2-dimyristoyl-sn-glycerol methoxypolyethylene glycol (DMG-PEG2000; Avanti Polar Lipids, Alabaster, Alabama, USA).
as §1
A 1 mg/ml solution of the desired mRNA or DNA to be incorporated into the LNPs was added to 150 mM sodium acetate buffer (pH 5.2) to form a stock solution and kept on ice. The aqueous mRNA or DNA was then added to the lipids as shown in Table 25 or 26 and hand-mixed vigorously with a single channel pipettor.
as §2, with “resultant mRNA or DNA LNP compositions” for “resultant mRNA LNP compositions”, “The mRNA and DNA LNPs were” for “The mRNA LNPs were”
LNP compositions of the present disclosure comprising mRNA or DNA encoding firefly luciferase (hereafter “Flue”; TriLink) and COMPOUNDS 9-21 were prepared as described in Example 14 by combining one of COMPOUNDS 9-21, the phospholipid DOPE, the structural lipid cholesterol (Chol) and 1,2-dimyristoyl-sn-glycerol methoxypolyethylene glycol (DMG-PEG2000) in the percentages presented in Tables 27 and 28:
The physical characteristics of the resulting LNPs were analyzed.

Row | SMILES | PDI DNA [4] | Particle Size (nm) DNA [4] [nm] | PDI RNA [4] | Particle Size (nm) RNA [4] [nm] | further results
1 | CC(C)C(CCC(C)C(CCC1CCC(C(=O)NC2CCC(CC3CCC(NC(=O)C4CCC(CCC(SCCN(C)C)C(C)CCC(SCCN(C)C)C(C)C)C(SCCN(C)C)C4)CC3)CC2)CC1SCCN(C)C)SCCN(C)C)SCCN(C)C (stereo not shown) [Compound 5] | – | – | – | – | Diameter (DLS; nm) [1]: 91.8 nm; Diameter (NTA; nm) [1]: 84.4 nm; PDI [1]: 0.389; Total Particles/ml [1]: 7.03E+10 Particles/ml; Zeta Potential (mV) [1]: 0.18 mV; Diameter (DLS; nm) [2]: 82.0 nm; Diameter (NTA; nm) [2]: 85.8 nm; PDI [2]: 0.168; Total Particles/ml [2]: 2.31E+11 Particles/ml; Zeta Potential (mV) [2]: 0.21 mV; Avg IM flux n = 2 [3]: 2.12E+5
2 | CC(C)C(CCC(C)C(CCC1CC2C(=O)N(c3ccc(N4C(=O)C5CC(CCC(SCCN(C)C)C(C)CCC(SCCN(C)C)C(C)C)C(SCCN(C)C)CC5C4=O)cc3)C(=O)C2CC1SCCN(C)C)SCCN(C)C)SCCN(C)C (stereo not shown) [Compound 7] | – | – | – | – | Diameter (DLS; nm) [1]: 123.5 nm; Diameter (NTA; nm) [1]: 108.4 nm; PDI [1]: 0.113; Total Particles/ml [1]: 5.10E+10 Particles/ml; Zeta Potential (mV) [1]: −0.29 mV; Diameter (DLS; nm) [2]: 110.2 nm; Diameter (NTA; nm) [2]: 90.8 nm; PDI [2]: 0.224; Total Particles/ml [2]: 5.52E+11 Particles/ml; Zeta Potential (mV) [2]: 0.96 mV; Avg IM flux n = 2 [3]: 2.4E+5
3 | CC(C)C(CCC1CC2C(=O)N(c3ccc(N4C(=O)C5CC(CCC(SCCN(C)C)C(C)C)C(SCCN(C)C)CC5C4=O)cc3)C(=O)C2CC1SCCN(C)C)SCCN(C)C (stereo not shown) [Compound 8] | – | – | – | – | Avg IM flux n = 2 [3]: 8.31E+4
4 | CC(C)C(CCC(C)C(CCC1CCC(C(=O)OCCCCCCOC(=O)C2CCC(CCC(SCCN(C)C)C(C)CCC(SCCN(C)C)C(C)C)C(SCCN(C)C)C2)CC1SCCN(C)C)SCCN(C)C)SCCN(C)C (stereo not shown) [Compound 10] | 0.403 | 291.2 | 0.120 | 254.1 | –
5 | CC(C)C(CCC(C)C(CCC1CCC(C(=O)OCCCCCCCCCCCCOC(=O)C2CCC(CCC(SCCN(C)C)C(C)CCC(SCCN(C)C)C(C)C)C(SCCN(C)C)C2)CC1SCCN(C)C)SCCN(C)C)SCCN(C)C (stereo not shown) [Compound 11] | 0.366 | 511.8 | 0.156 | 270.4 | –
6 | CC(C)C(CCC(C)C(CCC1CCC(C(=O)OCCCCCCCCCCCCCCCCCCCCOC(=O)C2CCC(CCC(SCCN(C)C)C(C)CCC(SCCN(C)C)C(C)C)C(SCCN(C)C)C2)CC1SCCN(C)C)SCCN(C)C)SCCN(C)C (stereo not shown) [Compound 12] | 0.251 | 228.0 | 0.216 | 162.7 | –
7 | CC(C)C(CCC1CCC(C(=O)OCCCCCCOC(=O)C2CCC(CCC(SCCN(C)C)C(C)C)C(SCCN(C)C)C2)CC1SCCN(C)C)SCCN(C)C (stereo not shown) [Compound 14] | 0.272 | 392.2 | 0.249 | 222.5 | –
8 | CC(C)C(CCC1CCC(C(=O)OCCCCCCCCCCCCOC(=O)C2CCC(CCC(SCCN(C)C)C(C)C)C(SCCN(C)C)C2)CC1SCCN(C)C)SCCN(C)C (stereo not shown) [Compound 15] | 0.201 | 375.6 | 0.208 | 267.1 | –
9 | CC(C)C(CCC1CCC(C(=O)OCCCCCCCCCCCCCCCCCCCCOC(=O)C2CCC(CCC(SCCN(C)C)C(C)C)C(SCCN(C)C)C2)CC1SCCN(C)C)SCCN(C)C (stereo not shown) [Compound 16] | 0.277 | 149.8 | 0.327 | 188.8 | –
10 | CC(C)C(CCC(C)C(CCC1CCC(C(=O)OCCCCCCSCCCCCCCCSCCCCCCOC(=O)C2CCC(CCC(SCCN(C)C)C(C)CCC(SCCN(C)C)C(C)C)C(SCCN(C)C)C2)CC1SCCN(C)C)SCCN(C)C)SCCN(C)C (stereo not shown) [Compound 20] | 0.189 | 229.6 | 0.211 | 221.0 | –
11 | CC(C)C(CCC1CCC(C(=O)OCCCCCCSCCCCCCCCSCCCCCCOC(=O)C2CCC(CCC(SCCN(C)C)C(C)C)C(SCCN(C)C)C2)CC1SCCN(C)C)SCCN(C)C (stereo not shown) [Compound 21] | 0.230 | 161.1 | 0.273 | 144.9 | –
